Assay results reported in PMC9552234.

Test: amide bond formation (macrolactamization of free amino acid tripeptides containing anthranilic acid), HATU (1.2 equiv), Et3N (1.2 equiv), high dilution
Settings: 10-membered ring, CH2Cl2, 3.0 mM, 0.0 °C, 2 steps

For `CC(=O)N1c2ccccc2[C@H]2C[C@H]3C(=O)N[C@@H](C(C)C)C(=O)Nc4ccccc4C(=O)N3[C@H]21` (mixture of isomers) [endo-47 -> endo-48 (1 step, from exo/endo mixture)], the ring closure, yield over several steps (from CC(=O)N1c2ccccc2[C@H]2C[C@@H](C(=O)N[C@H](C(=O)Nc3ccccc3C(=O)O)C(C)C)N[C@H]21, 1.0 h) was 19%.

`CC(=O)N1c2ccccc2[C@@H]2C[C@H]3C(=O)N[C@@H](C(C)C)C(=O)Nc4ccccc4C(=O)N3[C@@H]21` (mixture of isomers) [exo-47 -> exo-48 (1 step, from exo/endo mixture)] showed a ring closure, yield over several steps (from CC(=O)N1c2ccccc2[C@@H]2C[C@@H](C(=O)N[C@H](C(=O)Nc3ccccc3C(=O)O)C(C)C)N[C@@H]21, 1.0 h) of 29%.

Compound `CC(=O)n1cc(C[C@H]2NC(=O)c3ccccc3NC(=O)[C@H](C(C)C)NC2=O)c2ccccc21` [H-D-Trp(1-Ac)-Val-Abz(2)-OH] has a ring closure, yield over several steps (from CC(=O)n1cc(C[C@@H](N)C(=O)N[C@H](C(=O)Nc2ccccc2C(=O)O)C(C)C)c2ccccc21, 1.17 h) of 53%.

`CC(C)[C@@H]1NC(=O)[C@@H](Cc2cn(C(=O)OC(C)(C)C)c3ccccc23)NC(=O)c2ccccc2NC1=O` [H-D-Trp(1-Boc)-Val-Abz(2)-OH] gave a ring closure, yield over several steps (from CC(C)[C@H](NC(=O)[C@H](N)Cc1cn(C(=O)OC(C)(C)C)c2ccccc12)C(=O)Nc1ccccc1C(=O)O, 0.83 h) of 56%.

`CC(=O)n1cc(C[C@@H]2NC(=O)c3ccccc3NC(=O)[C@H](C(C)C)NC2=O)c2ccccc21` [H-Trp(1-Ac)-Val-Abz(2)-OH] showed a ring closure, yield over several steps (from CC(=O)n1cc(C[C@H](N)C(=O)N[C@H](C(=O)Nc2ccccc2C(=O)O)C(C)C)c2ccccc21) of 0%.

`C=CC(C)(C)[C@]12C[C@H]3C(=O)N[C@@H](C(C)C)C(=O)Nc4ccccc4C(=O)N3[C@H]1N(C(C)=O)c1ccccc12` [endo-69 -> L-Trp-endo-11 (slow addition; decomposition)] gave a ring closure, yield over several steps (from C=CC(C)(C)[C@]12C[C@@H](C(=O)O)N(C(=O)c3ccccc3NC(=O)[C@@H](N)C(C)C)[C@H]1N(C(C)=O)c1ccccc12) of 0%.

In the case of `C=CC(C)(C)[C@]12C[C@H]3C(=O)N[C@@H](C(C)C)C(=O)Nc4ccccc4C(=O)N3[C@H]1N(C(C)=O)c1ccccc12` [endo-75 -> L-Trp-endo-11 (incl. Boc removal)], the ring closure, yield over several steps (from C=CC(C)(C)[C@]12C[C@@H](C(=O)N[C@H](C(=O)Nc3ccccc3C(=O)O)C(C)C)N[C@H]1N(C(C)=O)c1ccccc12, 2.0 h) is reported as 87%.

For `C=CC(C)(C)[C@@]12C[C@H]3C(=O)N[C@@H](C(C)C)C(=O)Nc4ccccc4C(=O)N3[C@@H]1N(C(C)=O)c1ccccc12` [exo-69 -> L-Trp-exo-11 (slow addition; trace)], the ring closure, yield over several steps (from C=CC(C)(C)[C@@]12C[C@@H](C(=O)O)N(C(=O)c3ccccc3NC(=O)[C@@H](N)C(C)C)[C@@H]1N(C(C)=O)c1ccccc12) was 0%.

For `C=CC(C)(C)[C@@]12C[C@H]3C(=O)N[C@@H](C(C)C)C(=O)Nc4ccccc4C(=O)N3[C@@H]1N(C(C)=O)c1ccccc12` [exo-75 -> L-Trp-exo-11 (incl. Boc removal)], the ring closure, yield over several steps (from C=CC(C)(C)[C@@]12C[C@@H](C(=O)N[C@H](C(=O)Nc3ccccc3C(=O)O)C(C)C)N[C@@H]1N(C(C)=O)c1ccccc12, 1.5 h) was 97%.
